Source: patent publication US9340500B2, “Aromatic heterocyclic derivative having TRPV4-inhibiting activity” (SHIONOGI & CO., LTD., priority 2011, dated 2016)

Key:
[1] = Metabolism stability test; type: in vitro ADME; details: human liver microsomes, 30 minutes, compound concentration 2 μmol/L
Procedure: Using a commercially available pooled human hepatic microsomes, a test compound was reacted for a constant time, a remaining rate was calculated by comparing a reacted sample and an unreacted sample, thereby, a degree of metabolism in liver was assessed.
A reaction was performed (oxidative reaction) at 37° C. for 0 minute or 30 minutes in the presence of 1 mmol/L NADPH in 0.2 mL of a buffer (50 mmol/L Tris-HCl pH 7.4, 150 mmol/L potassium chloride, 10 mmol/L magnesium chloride) containing 0.5 mg protein/mL of human liver microsomes. After the reaction, 50 μL of the reaction mixture was added to 100 μL of a methanol/acetonitrile=1/1 (v/v), mixed and centrifuged at 3000 rpm for 15 minutes. The test compound in the supernatant was quantified by LC/MS/MS, and a remaining amount of the test compound after the reaction was calculated, letting a compound amount at 0 minute reaction time to be 100%. Hydrolysis reaction was performed in the absence of NADPH and glucuronidation reaction was in the presence of 5 mM UDP-glucuronic acid in place of NADPH, followed by similar operations.

human TRPV4 = human TRPV4 (Homo sapiens (Human), UniProt Q9HBA0); test: Test Example 3: measurement of TRPV4 inhibitory activity (Fluo-3, FDSS 3000, 4α-PDD); type: cell-based; details: hTRPV4/CHO cells, calculated from IC50 and 4α-PDD EC50
How it was run: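 Fluo-3-loaded CHO-K1 cells stably expressing TRPV4 in HEPES/probenecid Hanks buffer pH 7.4; compound added, then 4α-PDD, Ca2+ fluorescence (Ex 480/Em 540 nm) read 8 min. Max-Min normalized to 10 μM Ruthenium Red (100%) and vehicle; IC50 from 10-point 3-fold series converted to Ki using 4α-PDD EC50 and concentration.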

[2] = molecular target: human ether-a-go-go related gene (hERG) channel (Homo sapiens (Human), UniProt Q12809); test: hERG test (whole cell patch clamp, IKr); type: cell-based; details: 1 μmol/L of test compound, HEK293 cells expressing hERG
Source text: For the purpose of assessing risk of an electrocardiogram QT interval prolongation, effects on delayed rectifier K^+ current (IKr), which plays an important role in the ventricular repolarization process, was studied using HEK293 cells expressing human ether-a-go-go related gene (hERG) channel.
After a cell was retained at a membrane potential of −80 mV by whole cell patch clamp method using an automated patch clamp system (PatchXpress 7000A, Axon Instruments Inc.), IKr induced by depolarization pulse stimulation at +40 mV for 2 seconds and, further, repolarization pulse stimulation at −50 mV for 2 seconds was recorded. […] From the recording IKr, an absolute value of the tail peak current was measured based on the current value at the resting membrane potential using an analysis software (DataXpress ver. 1, Molecular Devices Corporation). Further, the % inhibition relative to the tail peak current before application of the test substance was calculated, and compared with the vehicle-applied group (0.1% dimethyl sulfoxide solution) to assess influence of the test substance on IKr.

Sequence of human TRPV4 (Q9HBA0 whole entry): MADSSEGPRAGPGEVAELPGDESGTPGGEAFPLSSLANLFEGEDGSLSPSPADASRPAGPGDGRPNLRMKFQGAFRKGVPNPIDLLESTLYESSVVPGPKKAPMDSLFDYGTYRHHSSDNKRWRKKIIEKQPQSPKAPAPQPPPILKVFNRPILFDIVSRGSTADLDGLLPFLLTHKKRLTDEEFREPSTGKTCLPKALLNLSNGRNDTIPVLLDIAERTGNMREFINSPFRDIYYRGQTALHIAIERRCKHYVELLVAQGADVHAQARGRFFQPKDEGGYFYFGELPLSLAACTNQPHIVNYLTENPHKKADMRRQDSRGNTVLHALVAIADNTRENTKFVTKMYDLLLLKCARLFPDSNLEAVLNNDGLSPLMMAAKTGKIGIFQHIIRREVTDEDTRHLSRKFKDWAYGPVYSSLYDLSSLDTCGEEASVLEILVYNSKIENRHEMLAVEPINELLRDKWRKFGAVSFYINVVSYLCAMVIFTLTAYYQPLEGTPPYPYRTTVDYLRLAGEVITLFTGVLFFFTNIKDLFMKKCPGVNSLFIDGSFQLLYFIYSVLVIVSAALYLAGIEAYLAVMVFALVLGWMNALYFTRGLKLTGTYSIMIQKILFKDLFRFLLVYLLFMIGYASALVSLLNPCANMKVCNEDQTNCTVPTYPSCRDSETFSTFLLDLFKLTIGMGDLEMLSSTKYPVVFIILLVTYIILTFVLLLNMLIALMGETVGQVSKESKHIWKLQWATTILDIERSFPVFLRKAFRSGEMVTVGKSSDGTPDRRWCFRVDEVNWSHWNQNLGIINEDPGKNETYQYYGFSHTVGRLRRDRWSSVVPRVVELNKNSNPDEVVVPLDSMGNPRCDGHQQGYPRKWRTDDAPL
Sequence of human ether-a-go-go related gene (hERG) channel (Q12809 whole entry): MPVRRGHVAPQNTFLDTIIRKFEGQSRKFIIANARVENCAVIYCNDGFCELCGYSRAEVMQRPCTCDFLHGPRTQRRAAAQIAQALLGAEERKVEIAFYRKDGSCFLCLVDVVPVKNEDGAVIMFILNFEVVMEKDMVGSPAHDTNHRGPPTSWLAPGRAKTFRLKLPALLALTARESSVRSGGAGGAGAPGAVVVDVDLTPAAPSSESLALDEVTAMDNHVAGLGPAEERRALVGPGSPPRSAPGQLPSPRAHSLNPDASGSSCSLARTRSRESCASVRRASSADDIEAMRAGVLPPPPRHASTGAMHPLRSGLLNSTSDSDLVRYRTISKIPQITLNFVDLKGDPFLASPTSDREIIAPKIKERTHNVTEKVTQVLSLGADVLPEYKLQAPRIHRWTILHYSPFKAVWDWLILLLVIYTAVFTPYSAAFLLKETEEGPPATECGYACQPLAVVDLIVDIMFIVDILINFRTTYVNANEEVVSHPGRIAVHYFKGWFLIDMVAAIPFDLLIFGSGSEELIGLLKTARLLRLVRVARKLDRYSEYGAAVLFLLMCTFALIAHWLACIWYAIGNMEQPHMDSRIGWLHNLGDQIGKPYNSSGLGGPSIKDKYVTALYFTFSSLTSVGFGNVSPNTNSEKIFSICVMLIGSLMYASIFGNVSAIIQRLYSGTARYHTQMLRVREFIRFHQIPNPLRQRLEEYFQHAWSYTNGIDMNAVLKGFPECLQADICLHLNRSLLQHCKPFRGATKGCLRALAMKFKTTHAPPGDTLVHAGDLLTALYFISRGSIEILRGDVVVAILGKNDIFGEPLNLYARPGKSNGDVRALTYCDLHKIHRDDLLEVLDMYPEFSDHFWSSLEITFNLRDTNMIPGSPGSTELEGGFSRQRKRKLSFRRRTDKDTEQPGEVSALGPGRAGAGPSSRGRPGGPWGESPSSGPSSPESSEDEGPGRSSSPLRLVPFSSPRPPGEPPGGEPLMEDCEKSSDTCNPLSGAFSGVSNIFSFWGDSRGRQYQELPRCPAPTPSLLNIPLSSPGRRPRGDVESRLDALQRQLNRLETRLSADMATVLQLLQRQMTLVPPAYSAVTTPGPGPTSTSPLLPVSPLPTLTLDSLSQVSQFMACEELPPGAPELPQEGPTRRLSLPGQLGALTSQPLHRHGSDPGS

Row | SMILES | remaining rate (metabolism stability) [1] | Ki (human TRPV4) | hERG % inhibition [2]
1 | Cc1c(C(=O)Nc2cccc(C(F)(F)F)c2)cc(-c2ccccc2)n1CCCN(C)C [Compound I-018] | 70.6% | 169 nM | –
2 | Cc1c(C(=O)Nc2cccc(C(F)(F)F)c2)cc(-c2ccccc2)n1CCCNS(C)(=O)=O [Compound I-026] | – | 427 nM | 11.7%
3 | Cc1c(C(=O)Nc2cccc(C(F)(F)F)c2)ccn1CCCN1CCOCC1 [Compound I-007] | 85% | 1450 nM | –
